# Assay results: ChEMBL document CHEMBL1142822, “Analysis of structure-activity relationships for the 'A-region' of N-(4-t-butylbenzyl)-N'-[4-(methylsulfonylamino)benzyl]thiourea analogues as TRPV1 antagonists” (Bioorg Med Chem Lett, 2005); call rule not given here
# What was measured:
# [1] = molecular target: T1, Transient receptor potential cation channel subfamily V member 1 (Rattus norvegicus, UniProt O35433); assay: Agonist activity by [Ca2+] uptake in CHO cells expressing rat TRPV1 at 10-30 uM; WE = Weakly effective; assay type: functional, cell-based
# T1 sequence (O35433 whole entry): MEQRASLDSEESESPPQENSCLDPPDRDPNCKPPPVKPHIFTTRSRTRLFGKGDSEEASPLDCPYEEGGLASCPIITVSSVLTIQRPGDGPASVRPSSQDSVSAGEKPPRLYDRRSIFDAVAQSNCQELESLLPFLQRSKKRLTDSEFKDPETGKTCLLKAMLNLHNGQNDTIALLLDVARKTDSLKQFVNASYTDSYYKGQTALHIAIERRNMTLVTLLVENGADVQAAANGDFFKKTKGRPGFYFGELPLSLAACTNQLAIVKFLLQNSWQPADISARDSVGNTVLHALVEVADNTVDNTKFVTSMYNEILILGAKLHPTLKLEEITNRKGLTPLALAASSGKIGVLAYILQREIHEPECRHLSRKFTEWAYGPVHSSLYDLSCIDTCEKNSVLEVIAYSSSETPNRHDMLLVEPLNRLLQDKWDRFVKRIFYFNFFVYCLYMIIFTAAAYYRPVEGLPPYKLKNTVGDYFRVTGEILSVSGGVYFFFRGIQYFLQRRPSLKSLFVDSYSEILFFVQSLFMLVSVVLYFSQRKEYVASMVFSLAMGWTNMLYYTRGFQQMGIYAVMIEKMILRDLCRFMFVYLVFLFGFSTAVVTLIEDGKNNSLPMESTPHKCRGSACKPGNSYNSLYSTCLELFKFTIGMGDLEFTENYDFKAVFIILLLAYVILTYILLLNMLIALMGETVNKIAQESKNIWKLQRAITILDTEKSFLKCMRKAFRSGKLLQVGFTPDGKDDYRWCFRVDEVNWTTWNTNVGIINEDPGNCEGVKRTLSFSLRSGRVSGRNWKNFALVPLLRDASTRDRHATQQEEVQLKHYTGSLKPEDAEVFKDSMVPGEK
# [2] = molecular target: T1, Transient receptor potential cation channel subfamily V member 1; assay: Antagonist activity for rat TRPV1 expressed in CHO cells; Weakly effective; assay type: functional, cell-based
# [3] = molecular target: T1, Transient receptor potential cation channel subfamily V member 1; assay: In vitro binding affinity for rat TRPV1 expressed in CHO cells using [3H]-RTX; assay type: cell-based
# [4] = molecular target: T1, Transient receptor potential cation channel subfamily V member 1; assay: Antagonist activity for rat TRPV1 expressed in CHO cells; assay type: functional, cell-based
# [5] = molecular target: T1, Transient receptor potential cation channel subfamily V member 1; assay: Agonist activity by 300 nM capsaicin induced [Ca2+] uptake in CHO cells expressing rat TRPV1 at 10-30 uM; NE = Not effective; assay type: functional, cell-based
# [6] = molecular target: T1, Transient receptor potential cation channel subfamily V member 1; assay: Agonist activity by 300 nM capsaicin induced [Ca2+] uptake in CHO cells expressing rat TRPV1 at 10-30 uM; WE = Weakly effective; assay type: functional, cell-based
# [7] = molecular target: T1, Transient receptor potential cation channel subfamily V member 1; assay: Agonist activity by [Ca2+] uptake in CHO cells expressing rat TRPV1 at 10-30 uM; NE = Not effective; assay type: functional, cell-based
# [8] = molecular target: T1, Transient receptor potential cation channel subfamily V member 1; assay: Antagonist activity for rat TRPV1 expressed in CHO cells; Not effective; assay type: functional, cell-based
# [9] = molecular target: T1, Transient receptor potential cation channel subfamily V member 1; assay: Agonist activity by [Ca2+] uptake in CHO cells expressing rat TRPV1 at 10-30 uM; assay type: functional, cell-based
# [10] = molecular target: T1, Transient receptor potential cation channel subfamily V member 1; assay: In vitro binding affinity for rat TRPV1 expressed in CHO cells using [3H]RTX; Not effective; assay type: cell-based
SMILES,Ki [3] [nM],Ki [4] [nM],EC50 ([7]; cho),Ki [8],other results
CC(C)(C)c1ccc(C/N=C(\S)NCc2ccc(NS(N)(=O)=O)cc2)cc1,650,–,–,–,EC50 [1]: Partial agonist; Ki [2]: Partial antagonist
CC(C)(C)c1ccc(C/N=C(\S)NCc2ccc(NS(=O)(=O)CCN=[N+]=[N-])cc2)cc1,145,231,–,–,EC50 [5]: Not Active
CC(C)(C)c1ccc(C/N=C(\S)NCCc2ccc(NS(C)(=O)=O)cc2)cc1,3900,699,–,–,EC50 ([6]; cho): Partial agonist
CC(C)(C)c1ccc(C/N=C(\S)NCc2ccc(NS(C)(=O)=O)cn2)cc1,–,4100,Not Active,–,–
CSc1cccc(C/N=C(\S)NCc2ccc(C(C)(C)C)cc2)c1,580,–,–,Not Active,EC50 ([6]; cho): Partial agonist
CC(C)(C)c1ccc(C/N=C(\S)Nc2ccc(NS(C)(=O)=O)cc2)cc1,9560,6800,–,–,EC50 [1]: Partial agonist
COc1cc(CNC(=S)NCc2ccc(C(C)(C)C)cc2)ccc1NS(C)(=O)=O,–,–,–,–,EC50 ([6]; cho): Partial agonist
CC(C)(C)c1ccc(C/N=C(\S)NCc2cccc(S(C)(=O)=O)c2)cc1,1000,–,–,Not Active,EC50 ([6]; read-out: EC50): 1010 nM
CC(C)(C)c1ccc(C/N=C(\S)NCc2ccc(NS(C)(=O)=O)cc2C(F)(F)F)cc1,440,119,Not Active,–,–
CC(C)(C)c1ccc(C/N=C(\S)NCc2ccc(NS(=O)(=O)CCN)cc2)cc1,4640,–,Not Active,–,Ki [2]: Partial antagonist
CC(C)(C)c1ccc(C/N=C(\S)NCc2cnc(NS(C)(=O)=O)cn2)cc1,–,–,Not Active,Not Active,Ki [10]: Not Active
C[S+]([O-])c1cccc(C/N=C(\S)NCc2ccc(C(C)(C)C)cc2)c1 (stereo not drawn),3600,–,–,Not Active,EC50 ([7]; read-out: EC50): 1890 nM
C=CS(=O)(=O)Nc1ccc(CN/C(S)=N/Cc2ccc(C(C)(C)C)cc2)cc1,231,–,–,Not Active,EC50 [9]: 250 nM
Oc1cc2c(cc1O)CN(C(=S)NCCc1ccc(Cl)cc1)CCC2 [CAPSAZEPINE],–,–,Not Active,–,–

# Second part, led by results:
Ki [3] [nM],Ki [4] [nM],EC50 ([7]; cho),Ki [8],SMILES,other results
750,–,–,–,CC(C)(C)c1ccc(C/N=C(\S)NCc2ccc(NS(C)(=O)=O)c(O)c2)cc1,EC50 [1]: Partial agonist; Ki [2]: Partial antagonist
–,–,–,Not Active,CC(C)(C)c1ccc(C/N=C(\S)NCc2ccc(CNS(C)(=O)=O)cc2)cc1,EC50 [9]: 1720 nM
–,–,Not Active,Not Active,CC(C)(C)c1ccc(C/N=C(\S)NCc2ccc(NS(C)(=O)=O)c(S(C)(=O)=O)c2)cc1,Ki [10]: Not Active
1300,610,Not Active,–,CC(C)(C)c1ccc(C/N=C(\S)NCc2ccc(NS(C)(=O)=O)c([N+](=O)[O-])c2)cc1,–
6000,–,–,Not Active,CC(C)(C)c1ccc(C/N=C(\S)NCc2cccc(NS(C)(=O)=O)c2)cc1,EC50 ([7]; read-out: EC50): 4100 nM
144,45.5,Not Active,–,CC(C)(C)c1ccc(C/N=C(\S)NCc2ccc(NS(C)(=O)=O)cc2Cl)cc1,–
8070,3600,Not Active,–,CC(C)Oc1cc(C/N=C(\S)NCc2ccc(C(C)(C)C)cc2)ccc1NS(C)(=O)=O,–
–,–,Not Active,–,CC(C)(C)c1ccc(CNC(=S)NCc2ccc(NS(C)(=O)=O)cc2)cc1,–
1160,400,–,–,CC(C)(C)c1ccc(C/N=C(\S)NCc2ccc(NS(C)(=O)=O)c(Cl)c2)cc1,EC50 [5]: Not Active
215,27.3,Not Active,–,CC(C)(C)c1ccc(C/N=C(\S)NCc2ccc(NS(C)(=O)=O)cc2F)cc1,–
–,–,Not Active,–,CC(C)(C)c1ccc(CNC(=S)NCc2ccc(NS(C)(=O)=O)c(F)c2)cc1,–
4100,177,Not Active,–,CC(C)(C)c1ccc(C/N=C(\S)NCc2ccc(NS(C)(=O)=O)nc2)cc1,–
